One may read the inhibition as the relative decrease from the control value, in per cent. A higher inhibition goes with strong suppression.

The values below come from paper PMC2567432 (PLoS ONE, 2008).

This assay has as its system breast cancer JIMT-1 cells. In words: Cell proliferation WST-1 assay, JIMT-1. The format is cell-based, human. The method, then: Figure 3 Growth inhibition of different tumor cell lines by polyphenols. […] Following 24-h incubation, cell proliferation was evaluated using the WST-1 assay.
Tumor cells were cultured in RPMI medium containing 10% fetal calf serum (RPMI-FCS) (PC-3, JIMT-1, MDA-MD 231) or in DMEM-FCS (astrocytoma 1321N1 cells) containing penicillin/streptomycin (100 U penicillin/ml; 100 µg streptomycin/ml) at 37°C/5% CO2. Cytosolic protein extracts of tumor cells were prepared using extraction buffer composed of 25 mM Tris, 2 mM EDTA, 10% Glycerol, 1% Triton ×100, 2 mM DTT, 1mM PMSF, pH. 7.0 containing 0.3% protease inhibitor cocktail. Protein content was determined according to Bradford. Specific activity of enzymes analyzed in cell extracts was expressed as U/mg protein.
Cell proliferation/vitality of tumor cells (96-well plates; 5000 cells/well) and primary human hepatocytes (24-well plates; 0.25×10^6 cells/well) was assayed using the WST-1 assay according to manufacturer's instructions. Trypan blue exclusion was performed by staining cells with 0.4% aqueous trypan blue solution according to the manufacturer's instructions.

Each structure is given as a SMILES string.

`COc1cc(C=CC(=O)CC(=O)C=Cc2ccc(O)c(OC)c2)ccc1O` [curcumin, 1,7-bis(4-hydroxy-3-methoxyphenyl)-1,6-heptadiene-3,5-dione] gave an inhibition at 50 µM (Homo sapiens, JIMT-1, 50 µM, 24 h) of around 30%. Further, the “concentration giving strong anti-proliferative effects” value (JIMT-1, 24 h, WST-1) is reported as “above 50 µM”.
